The test system of one data set is Primary T cells. As to the kind of experiment: Cytotoxicity, viability by flow cytometry. It counts as cell-based. On the procedure: Primary T cells are cultured and treated with different concentrations of the test compound. Viability is analysed by measuring through flow cytometry based techniques the percentage of viable cells, compared to untreated control=100%).
(A flow cytometer gives signals particle by particle.)

Data set [1] addresses human CDK9/CyclinT kinase complex (Homo sapiens (Human), UniProt P50750). Kind of data set: In Vitro CDK9/CyclinT Assay (IMAP fluorescent polarization). It counts as biochemical. The procedure: In Vitro CDK9/CyclinT Assay
The activity of the compounds described in the present invention can be determined by measuring the phosphorylation of a fluorescently-labeled peptide by human CDK9/CyclinT kinase complex by fluorescent polarization using a commercially available IMAP Screening Express Assay Kit (Molecular devices).
Test compounds were diluted in 100% DMSO to 5 mM stock concentration, then further dilutions were made in H2O or 100% DMSO to desirable concentrations. Each reaction consisted of 5 nM enzyme: CDK9/CyclinT (Proqinase cat#0371-0345-1), 400 nM TAMRA-Rbtide (synthetic 15-mer peptide derived from human retinoblastoma tumor suppressor protein labeled with TAMRA dye, Genecust Europe), 12 μM ATP (=Kmapp, Sigma-Aldrich) and kinase buffer: 20 mM MOPS pH 7 (Sigma-Aldrich), 1 mM DTT (Sigma-Aldrich), 10 mM MgCl2 (Sigma-Aldrich), 0.01% Tween 20 (Sigma-Aldrich).
For each reaction, 4 or 6 μl containing TAMRA-Rbtide, ATP and kianse buffer were combined with 2 μl diluted compound in H2O or 0.028 μl compound in 100% DMSO. The kinase reaction was started by the addition of 2 μl diluted enzyme. The reaction was allowed to run for 1 hour at room temperature. The reaction was stopped by adding 15 μl IMAP beads (1:400 beads in progressive (100% buffer A) 1× buffer).

Setting [2] is: Table 4, toxic dose 50%, viable cells.

Molecules are shown by their SMILES. Read-outs that look alike come from different tables or passages of the source.

Usually IC50 stands for the point on the concentration scale where inhibition reaches its midpoint. Read a low IC50 as higher potency.

Chain of human CDK9/CyclinT kinase complex (P50750 whole entry): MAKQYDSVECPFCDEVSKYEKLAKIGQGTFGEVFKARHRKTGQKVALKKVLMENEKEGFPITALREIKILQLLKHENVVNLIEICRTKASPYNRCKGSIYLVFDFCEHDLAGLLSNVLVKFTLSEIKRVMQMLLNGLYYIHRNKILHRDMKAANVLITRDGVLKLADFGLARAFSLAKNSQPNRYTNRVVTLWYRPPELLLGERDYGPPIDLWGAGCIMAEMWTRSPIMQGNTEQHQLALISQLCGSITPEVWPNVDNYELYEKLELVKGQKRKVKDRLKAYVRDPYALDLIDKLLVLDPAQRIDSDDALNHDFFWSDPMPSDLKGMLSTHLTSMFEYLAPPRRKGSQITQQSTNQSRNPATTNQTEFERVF
Chain of human CDK9/CyclinT kinase complex (O60563 whole entry partner): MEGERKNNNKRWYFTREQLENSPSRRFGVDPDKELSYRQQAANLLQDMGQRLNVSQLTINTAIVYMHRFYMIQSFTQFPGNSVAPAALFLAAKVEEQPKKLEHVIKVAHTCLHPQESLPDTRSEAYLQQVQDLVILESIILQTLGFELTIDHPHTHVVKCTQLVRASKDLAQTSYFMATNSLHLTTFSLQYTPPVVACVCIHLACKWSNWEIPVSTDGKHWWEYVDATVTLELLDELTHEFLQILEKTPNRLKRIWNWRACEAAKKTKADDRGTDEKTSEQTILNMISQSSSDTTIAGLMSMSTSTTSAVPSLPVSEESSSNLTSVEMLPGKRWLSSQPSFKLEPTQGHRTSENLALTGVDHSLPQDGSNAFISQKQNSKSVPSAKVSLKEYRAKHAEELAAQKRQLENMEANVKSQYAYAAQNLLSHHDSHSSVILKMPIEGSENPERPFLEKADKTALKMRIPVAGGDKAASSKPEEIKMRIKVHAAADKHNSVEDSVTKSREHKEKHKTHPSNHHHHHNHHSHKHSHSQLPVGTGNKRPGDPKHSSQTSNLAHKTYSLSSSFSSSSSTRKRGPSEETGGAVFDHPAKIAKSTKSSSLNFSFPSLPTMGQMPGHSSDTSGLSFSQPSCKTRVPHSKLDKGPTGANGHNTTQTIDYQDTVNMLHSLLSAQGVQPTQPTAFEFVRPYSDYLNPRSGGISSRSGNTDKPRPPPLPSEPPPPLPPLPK

In the case of `CCOC(=O)c1cc(Nc2cc(-c3ccccc3OC)ncn2)ccc1N1CCOCC1` [Example 18, Ethyl 5-(6-(2-methoxyphenyl)pyrimidin-4-ylamino)-2-morpholinobenzoate], the “TD50” value in the data set on Primary T cells was above 0.5 µM. In addition, the IC50 in data set [1] (Table 1) is below 1000 nM.
With `COc1ccc(Nc2cc(-c3ccccc3OC)ncn2)cc1CNS(C)(=O)=O` [Example 4, N-(2-Methoxy-5-(6-(2-methoxyphenyl)pyrimidin-4-ylamino)benzyl)methanesulfonamide], the “TD50” value in the data set with Primary T cells came out at 2.1 µM. The IC50 in data set [1] (Table 1) was below 100 nM.
On the same counts, the results for `COc1ccc(Nc2cc(-c3ccc(F)cc3OC(C)C)ncn2)cc1N` [Example 86, N^1-[6-(4-Fluoro-2-isopropoxy-phenyl)-pyrimidin-4-yl]-4-methoxy-benzene-1,3-diamine] are 4 µM and below 1000 nM.
On to `COc1ccc(Nc2cc(-c3ccccc3OC)ncn2)cc1OCCN1CCOCC1` [Example 8, N-(4-Methoxy-3-(2-morpholinoethoxy)phenyl)-6-(2-methoxyphenyl)pyrimidin-4-amine], for which the “TD50” value in the data set with Primary T cells (setting [2]) is above 1.5 µM. The half-inhibitory concentration (IC50) in data set [1] (Table 1) is below 1000 nM.
As to `COc1ccc(Nc2cc(-c3cc(F)ccc3OC)ncn2)cc1O` [Example 122, 5-[6-(5-Fluoro-2-methoxy-phenyl)-pyrimidin-4-ylamino]-2-methoxy-phenol], the “TD50” value in the data set with Primary T cells is above 2 µM. Further, the IC50 in data set [1] (Table 1) was below 1000 nM.
In the case of `COc1ccc(Nc2cc(-c3ccccc3OC)ncn2)cc1NS(C)(=O)=O` [Example 9, N-(2-Methoxy-5-(6-(2-methoxyphenyl)pyrimidin-4-ylamino)phenyl)methanesulfonamide], in the data set with Primary T cells, the “TD50” value was above 1.5 µM.
Consider `COc1ccc(Nc2cc(-c3ccccc3Oc3ccccc3)ncn2)cc1N` [Example 77, 4-Methoxy-N^1-[6-(2-phenoxy-phenyl)-pyrimidin-4-yl]-benzene-1,3-diamine], for which, in the data set with Primary T cells, the “TD50” value turned out to be 10 µM. Besides, the IC50 in data set [1] (Table 1) is below 10000 nM.
`COc1ccc(Nc2cc(-c3ccccc3OC)ncn2)cc1C=O` [Example 29, 2-Methoxy-5-(6-(2-methoxyphenyl)pyrimidin-4-ylamino)benzaldehyde]: in the data set with Primary T cells, the “TD50” value is above 0.5 µM. Further, the IC50 in data set [1] (Table 1) was below 1000 nM.
For `COc1ccccc1-c1cc(Nc2ccc(Cl)c(C(=O)N3CCCC3)c2)ncn1` [Example 15, (2-Chloro-5-(6-(2-methoxyphenyl)pyrimidin-4-ylamino)phenyl)(pyrrolidin-1-yl)methanone], the “TD50” value in the data set on Primary T cells is above 0.5 µM. The IC50 in data set [1] was below 1000 nM.
Regarding `COc1cc(F)c(Nc2cc(-c3ccccc3OC)ncn2)cc1N` [Example 92, 4-Fluoro-6-methoxy-N^3-[6-(2-methoxy-phenyl)-pyrimidin-4-yl]-benzene-1,3-diamine], in the data set with Primary T cells, the “TD50” value is above 20 µM. In data set [1] (Table 1), the IC50 was below 10000 nM.
As for `COc1ccccc1-c1cc(Nc2ccc(N3CCN(C)CC3)c(CO)c2)ncn1` [Example 17], the “TD50” value in the data set with Primary T cells is above 0.5 µM.
For `COc1ccccc1-c1cc(Nc2ccc(N3CCN(C)CC3)c(S(N)(=O)=O)c2)ncn1` [Example 38, 5-(6-(2-Methoxyphenyl)pyrimidin-4-ylamino)-2-(4-methylpiperazin-1-yl)benzenesulfonamide], the “TD50” value in the data set with Primary T cells is below 1.5 µM. This compound also returned an IC50 in data set [1] (Table 1) below 100 nM.
Take `COc1ccc(Nc2cc(-c3ccccc3O)ncn2)cc1N` [Example 70, 2-[6-(3-Amino-4-methoxy-phenylamino)-pyrimidin-4-yl]-phenol]: the “TD50” value with Primary T cells was above 10 µM. Also, the IC50 in data set [1] (Table 1) is above 10000 nM.
For `COc1ccc(F)cc1-c1cc(Nc2cc(F)c(OC)c(C(N)=O)c2)ncn1` [Example 140, 3-Fluoro-5-[6-(5-fluoro-2-methoxy-phenyl)-pyrimidin-4-ylamino]-2-methoxy-benzamide], the “TD50” value in the data set on Primary T cells is above 20 µM. Besides, the IC50 in data set [1] (Table 1) is below 10000 nM.
The matching figures for `COc1ccc(Nc2cc(-c3ccccc3OC)ncn2)cc1C(=O)NN` [Example 33, 2-Methoxy-5-(6-(2-methoxyphenyl)pyrimidin-4-ylamino)benzohydrazide]: above 5 µM and below 100 nM.
Take `COc1ccc(Nc2cc(-c3ccccc3OC)ncn2)cc1NC(=O)OCC(Cl)(Cl)Cl` [Example 27, 2,2,2-Trichloroethyl 2-methoxy-5-(6-(2-methoxyphenyl)pyrimidin-4-ylamino)phenylcarbamate]: the “TD50” value with Primary T cells (setting [2]) was above 0.5 µM. Also, the IC50 in data set [1] was below 10000 nM.
Regarding `COc1ccc(Nc2cc(-c3ccccc3OC)ncn2)cc1C(=O)NCc1ccncc1` [Example 28, 2-Methoxy-5-(6-(2-methoxyphenyl)pyrimidin-4-ylamino)-N-(pyridin-4-ylmethyl)benzamide], in the data set with Primary T cells, the “TD50” value was above 0.5 µM. The IC50 in data set [1] was below 1000 nM.
On to `COc1ccccc1-c1cc(Nc2ccc(Cl)c(C(N)=O)c2)ncn1` [Example 44, 2-Chloro-5-(6-(2-methoxyphenyl)pyrimidin-4-ylamino)benzamide], for which, in the data set with Primary T cells, the “TD50” value is above 5 µM. This compound came in with an IC50 in data set [1] below 1000 nM.
With `CCOc1ccc(Nc2cc(-c3ccccc3OC)ncn2)cc1Cn1cnc2ccccc21` [Example 39, N-(3-((1H-Benzo[d]imidazol-1-yl)methyl)-4-ethoxyphenyl)-6-(2-methoxyphenyl)pyrimidin-4-amine], the “TD50” value in the data set on Primary T cells stood at 0.6 µM. Besides, in data set [1] (Table 1), the IC50 was below 100 nM.
`COc1ccc(Nc2cc(-c3ccc(F)cc3OC)ncn2)cc1NC(C)=O` [Example 117, N-{5-[6-(4-Fluoro-2-methoxy-phenyl)-pyrimidin-4-ylamino]-2-methoxy-phenyl}-acetamide]: the “TD50” value in the data set on Primary T cells (setting [2]) was above 2 µM. For the same compound, the IC50 in data set [1] is below 1000 nM.
`COc1ccc(Nc2cc(-c3ccccc3OC)ncn2)cc1CN(C)C` [Example 35, N-(3-((Dimethylamino)methyl)-4-methoxyphenyl)-6-(2-methoxyphenyl)pyrimidin-4-amine]: the “TD50” value in the data set on Primary T cells stood at 3 µM.
For `CCOc1ccc(Nc2cc(-c3ccccc3OC)ncn2)cc1N` [Example 101, 4-Ethoxy-N^1-[6-(2-methoxy-phenyl)-pyrimidin-4-yl]-benzene-1,3-diamine], in the data set with Primary T cells, the “TD50” value turned out to be 12 µM. Besides, in data set [1], the IC50 was below 1000 nM.
Take `COc1ccccc1-c1cc(Nc2ccc(N3CCOCC3)c(CO)c2)ncn1` [Example 19, (5-(6-(2-Methoxyphenyl)pyrimidin-4-ylamino)-2-morpholinophenyl)methanol]: in the data set on Primary T cells, the “TD50” value is above 0.5 µM. Further, the IC50 in data set [1] (Table 1) is below 1000 nM.
`COc1ccc(Nc2cc(-c3ccccc3OC)ncn2)cc1NC(=O)C(C)(C)C` [Example 53, N-{2-Methoxy-5-[6-(2-methoxy-phenyl)-pyrimidin-4-ylamino]-phenyl}-2,2-dimethyl-propionamide] returned an IC50 in data set [1] (Table 1) below 1000 nM.
In turn, `COc1cc(F)ccc1-c1cc(Nc2ccc(N(C)C)c(C(N)=O)c2)ncn1` [Example 113, 2-Dimethylamino-5-[6-(4-fluoro-2-methoxy-phenyl)-pyrimidin-4-ylamino]-benzamide] came in with an IC50 in data set [1] (Table 1) below 100 nM.
As for `COc1cc(Nc2cc(-c3ccccc3OC)ncn2)ccc1O` [Example 121, 2-Methoxy-4-[6-(2-methoxy-phenyl)-pyrimidin-4-ylamino]-phenol], in data set [1] (Table 1), the IC50 was below 100 nM.
Compound `COc1ccccc1-c1cc(Nc2ccc(N(C)C)c(C(N)=O)c2)ncn1` [Example 109, 2-Dimethylamino-5-[6-(2-methoxy-phenyl)-pyrimidin-4-ylamino]-benzamide] gave an IC50 in data set [1] below 1000 nM.
`COc1ccc(Nc2cc(-c3ccccc3OC)ncn2)cc1OC(=O)N(C)C` [Example 94, Dimethyl-carbamic acid 2-methoxy-5-[6-(2-methoxy-phenyl)-pyrimidin-4-ylamino]-phenyl ester] returned an IC50 in data set [1] (Table 1) below 1000 nM.
In data set [1] (Table 1), `CNc1cc(Nc2cc(-c3ccccc3OC)ncn2)ccc1OC` [Example 99, 4-Methoxy-N^1-[6-(2-methoxy-phenyl)-pyrimidin-4-yl]-N^3-methyl-benzene-1,3-diamine] showed an IC50 below 1000 nM.
For the compound `COc1cc(Nc2cc(-c3ccccc3OC)ncn2)ccc1NS(C)(=O)=O` [Example 60, N-{2-Methoxy-4-[6-(2-methoxy-phenyl)-pyrimidin-4-ylamino]-phenyl}-methanesulfonamide], in data set [1] (Table 1), the IC50 is below 1000 nM.
In turn, `COc1ccc(Nc2cc(-c3ccccc3OC)ncn2)cc1NC=O` [Example 55, N-{2-Methoxy-5-[6-(2-methoxy-phenyl)-pyrimidin-4-ylamino]-phenyl}-formamide] displayed an IC50 in data set [1] (Table 1) below 100 nM.
`COc1cc(F)ccc1-c1cc(Nc2ccc(OC)c([N+](=O)[O-])c2)ncn1` [Example 63, [6-(4-Fluoro-2-methoxy-phenyl)-pyrimidin-4-yl]-(4-methoxy-3-nitro-phenyl)-amine] came in with an IC50 in data set [1] (Table 1) below 1000 nM.
Same read-out and setting: in the case of `CCOc1cc(F)ccc1-c1cc(Nc2ccc(OC)c([N+](=O)[O-])c2)ncn1` [Example 72, [6-(2-Ethoxy-4-fluoro-phenyl)-pyrimidin-4-yl]-(4-methoxy-3-nitro-phenyl)-amine] it was below 1000 nM; in that of `COc1ccc(Nc2cc(-c3ccccc3OC)ncn2)cc1Nc1nc2ccccc2[nH]1` [Example 54, N^3-(1H-Benzoimidazol-2-yl)-4-methoxy-N^1-[6-(2-methoxy-phenyl)-pyrimidin-4-yl]-benzene-1,3-diamine], below 10000 nM.

Source of the values: patent US9617225B2 (VIROSTATICS SRL, priority 2012, dated 2017).
